Among the data in PubChem BioAssay AID623928 (NMMLSC, 2012) are LC50 values, retold here.

Calls of active or inactive are those of the source.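 The calls were made as follows: active = liver cell toxicity, with the dose killing half the cells under 10 micromolar; inactive = the rest.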

In the data set the test system is Fa2N-4 hepatocyte viability, ATP luminescence, 24 h. The data set is described as follows: cytotoxicity in immortalized human hepatocytes, late-stage follow-up, cytotoxicity control for GPR30 and estrogen receptor ligands, Fa2N-4 cells (AID 623928).

Broadly, the LC50 is the concentration that kills 50% of the test population. Consider `CC(=O)c1ccc2c(c1)[C@@H]1C=CC[C@@H]1[C@H](c1cc3c(cc1Br)OCO3)N2`, for which the LC50 was > 50 µM (inactive).
